Data published in US5665330A, “Dual purposed diagnostic/therapeutic agent having a tri-iodinated benzoyl group linked to a coumarin” (Nano Systems LLC, priority 1995, dated 1997).
Like-named read-outs stand apart in the source and are kept apart here.

Tests used:
water solubility = format: physicochemical
Protocol: Despite the high water solubility of sodium ditriazoate and sodium methoxy coumarin (>1 mg/ml), WIN 67638 and WIN 67591 are sparingly soluble in water with solubility less than 0.01 mg/mL.
By water soluble is meant greater than 1 mg/ml.

[1] = blood pool imaging, vascular x-ray contrast by CT after intravenous injection; format: in vivo, New Zealand White rabbits; conditions: 3 ml/kg via ear vein, CT at 5, 15, 30, 60, 120 min and 24 hours
Protocol: (§1) 2.85 g of WIN 67591 (19.2%) were added to 30 ml of a solution of 5.2% BASF NF Grade Tetronic 908 (wt/vol %) in sterilized distilled water and approximately 100 ml of 1.1 mm zirconium silicate beads in a 250 ml bottle. The bottle was capped and rolled at approximately 140 rpm for 7 days at which time the average particle size was determined to be 173 nm. The suspension was separated from the beads and sent for intravenous injection as a vascular x-ray contrast agent. New Zealand White rabbits were used for this study and were injected via the ear vein at a dose of 3 ml/kg. Three animals were studied for times 5, 15, 30, 60, 120 min. and 24 hours. CT scanning was carried out using a Toshiba Model TCT-900S/x at the times indicated.

axillary nodes = assay: lymphography, CT imaging of axillary nodes after subcutaneous injection; format: in vivo, New Zealand White Rabbits; conditions: 4 hours post injection, single 0.5 ml subcutaneous dose, dorsal side of forepaw
Protocol: (§2) 0.75 g of WIN 67591, as prepared in Example 1, was added to approximately 30 ml of 1.1 mm zirconium oxide beads and 10 ml of a solution which was 2% Tetronic 908 (wt/vol %) and 1% SA9OHCO (wt/vol %). SA9OHCO is a small sugar surfactant. The suspension was roller milled in a 60 ml jar at approximately 100 rpm for 7 days. At the end of this time, the average particle size was determined to be 192 nm by light scattering using a Zetasizer III. The suspension was removed from the beads and sent for subcutaneous injection as a lymphographic agent. CT imaging was carried out using a GE Model 9800 Instrument.

[2] = mortality in biodistribution study in colon 33 tumor bearing mice; format: in vivo; conditions: iv 0.2 ml/animal; during 48 hours treatment
Protocol: (§3) A nanoparticulate formulation of 5% w/v […] in 3% polyoctylphenol (Tyloxopol) was prepared by ten days roller milling following the procedures similar to that of Example 9.
(§4) A biodistribution study of the treatment of Example 5 was conducted by iv injections into colon 33 tumor bearing mice at 0.2 ml/animal. […] No dead mice were reported during the 48 hours treatment.

[3] = average particle size of roller-milled nanoparticle suspension (light scattering / PCS); format: physicochemical
Protocol: as §2, §1
(§5) […] as prepared in Example 1 at 5% W/V was formulated with 3% Tyloxapol by roller milling for ten days following the procedures similar to that of work example 3 and 4. The average particle size by PCS was 302 nm. The formulation was administered i.v. to colon 33 bearing mice at 0.2 ml/animal. […] As high as 700 ug (0.7% of the total dosage) WIN 67591 remained circulating in the blood 1 hour post injection. WIN 67591 was detected in the tumor tissue as early as 5 minute post injection. The drug concentration reached a maximum at 90 ug/g of tumor tissue at 6 hour post injection and maintained at a concentration of 60 ug/g in the tumor tissue for 48 hours.

colon 33 tumor tissue = assay: tumor tissue concentration after iv injection in mice bearing colon 33 tumor; format: in vivo
Protocol: as §3
(§6) The formulation was administered to mice bearing colon 33 tumor by iv injection. Analysis of the tumor tissue indicated the presence of WIN 67591 in the tumor tissue as soon as 5 minutes after injection. The drug concentration reached a maximum of 90 μg/g of tumor tissue at 6 hours and maintained at a concentration of 60 μg/g of tumor tissue for 42 hours.
as §5

[4] = as above; format: in vivo; conditions: mouse, colon 33 tumor tissue, iv; for Cmax at 6 h: read-out: maximum drug concentration in tumor tissue; for Tmax: read-out: time of maximum drug concentration in tumor tissue
Protocol: as §3, §6, §5

[5] = biodistribution study, circulation in blood of colon 33 tumor bearing mice; format: in vivo; conditions: Example 7, i.v. 0.2 ml/animal
Protocol: as §3, §4, §5

COc1ccc2c(COC(=O)c3c(I)c(NC(C)=O)c(I)c(NC(C)=O)c3I)cc(=O)oc2c1 [WIN 67638]
solubility (water solubility; water): < 10 µg/mL

COc1cc2oc(=O)cc(COC(=O)c3c(I)c(NC(C)=O)c(I)c(NC(C)=O)c3I)c2cc1OC [WIN 67591]
prolonged vascular residence time [1]: > 2 h
enhancement of the axillary nodes (CT) (axillary nodes): clear enchancement of the axillary nodes
dead mice [2]: No dead mice
average particle size ([3]; 2% Tetronic 908 and 1% SA9OHCO, roller milled 7 days, light scattering, Zetasizer III): 192 nm
average particle size by PCS ([3]; 5% W/V with 3% Tyloxapol, roller milling ten days): 302 nm
average particle size ([3]; 5.2% Tetronic 908 in sterilized distilled water, rolled 7 days): 173 nm
solubility (water solubility; in water, conjugates, read-out: solubility in water): < 10 µg/mL
time for which tumor concentration of 60 μg/g was maintained (colon 33 tumor tissue; Example 5, iv): 42 h
tumor tissue concentration versus average therapeutic dosage of oncologics (colon 33 tumor tissue; Example 5, iv): exceeds the average therapeutic dosage of oncologics
time at which drug is present in tumor tissue (colon 33 tumor tissue; Example 5, iv, 5% w/v in 3% Tyloxapol): ≤ 5 min
time at which drug is detected in tumor tissue (colon 33 tumor tissue; Example 7, HPLC, i.v. 0.2 ml/animal): ≤ 5 min
time for which tumor concentration of 60 ug/g was maintained (colon 33 tumor tissue; Example 7, i.v. 0.2 ml/animal): 48 h
Cmax at 6 h ([4]; Example 7, at 6 hour post injection, i.v. 0.2 ml/animal): 90000 ng/g
concentration at 48 h ([4]; Example 7, for 48 hours, i.v. 0.2 ml/animal, read-out: concentration maintained in tumor tissue): 60000 ng/g
Tmax ([4]; Example 7, i.v. 0.2 ml/animal): 6 h
Cmax at 6 h ([4]; Example 5, at 6 hours): 90000 ng/g
concentration at 42 h ([4]; Example 5, for 42 hours, read-out: concentration maintained in tumor tissue): 60000 ng/g
Tmax ([4]; Example 5): 6 h
amount remaining circulating in the blood ([5]; 1 hour post injection): 700 µg
share of total dosage remaining circulating in the blood ([5]; 1 hour post injection): 0.7%
blood circulation [5]: prolonged blood circulation

sodium methoxy coumarin
water solubility (water solubility; water): > 1000 µg/mL

CC(=O)Nc1c(I)c(NC(C)=O)c(I)c(C(=O)O)c1I [sodium ditriazoate, sodium diatrizoate, reference compound]
solubility (water solubility; in water, starting materials, read-out: water solubility): > 1000 µg/mL
